Where “and” joins values, the source holds several entries; their conditions need not be identical. Equal entries are not always repeated. Where two headings read alike, the source gives them in different places.
Assays:
[1] = Shear adhesion / holding power (PSTC-7) of plain adhesives and transdermal devices; assay type: physicochemical
Procedure: Holding power (shear adhesion): The ability of a tape to resist the static forces applied in the same plane as the backing. Usually expressed in a time required for a given weight per unit area to cause a given amount of tape to come loose from a vertical panel.
Throughout this specification, including the claims, the adhesive properties of shear adhesion and peel adhesion are measured employing the test methods adopted by the PSTC (Pressure Sensitive Tape Council) for Peel Adhesion (PSTC-1 Peel Adhesion of Single Coated Pressure Sensitive Tapes at 180° Angle) and Shear Adhesion (PSTC-7 Holding Power of Pressure Sensitive Tapes). The unit for peel adhesion is newtons/inch, and the unit for holding power (shear adhesion) is minutes. The test of holding power is performed under a load of 4 lbs/in^2 (28 kPa) and at 72° F. (22° C.).
Adhesive properties were measured as described above. The plain adhesive values given are those of the dry adhesive polymer composition without added components.

[2] = General appearance of patches with non-volatile coadjuvants (visual and tactile inspection); assay type: physicochemical; conditions: selegiline patches in DT 87-2353
[3] = Loss of selegiline during manufacture (after drying), HPLC; assay type: physicochemical; conditions: up to 15%
Procedure: Lots with DT 87-2353 as adhesive, selegiline and increasing amounts of squalene (SQ) and triethylcitrate (TEC) were manufactured as described in “Description of the manufacturing process” above and the amount of selegiline present after drying was measured.
Selegiline content was analysed by HPLC using a suitable technique

shaved skin = experiment: Evaluation of dermal irritation in rabbits (Example 3); assay type: in vivo, rabbits (New Zealand Albino); parameters: key to Score for Skin Erythema 1 h / Score for Skin Erythema 2 h / Score for Skin Erythema 4 h / Score for Skin Erythema 6 h / Score for Skin Erythema 8 h / Score for Skin Erythema 24 h: 0: No redness (erythema).; 1: Barely perceptible redness.; 2: Well defined redness.; 3: Severe Erythema (beet redness) to slight eschar formation (injuries in depth)
Procedure: Dermal irritation was tested using transdermal delivery devices manufactured as described in “Description of the manufacturing process” above with acrylic adhesives with different functionality and 15% of selegiline, all of them with shear value of more than 1.5 hours and less than 15 hours for the plain adhesive and without crosslinker agents (see Table 3). Each formulation was tested on 6 rabbits, with evaluations at 1, 2, 4, 6, 8 and 24 hrs. The degree of adhesion and glue residue was also evaluated with skin reactions on an open-label 1-day-study. Rabbits belonging to the New Zealand Albino strain were used as animal model. According protocol, and after 14 days of acclimatization, the fur of back of 6 male rabbits was thoroughly shaved. Twenty four hours later one patch of each formulation of 10.6 cm^2 was glued in each rabbit to the shaved skin, according to a randomized schedule.
Pure selegiline (25 μl) was used as control covered by Transpore tape (from 3M).
The irritation observed was classified according to the following scoring system: • Scale used for scoring erythema: • 0: No redness (erythema). • 1: Barely perceptible redness. • 2: Well defined redness. • 3: Severe Erythema (beet redness) to slight eschar formation (injuries in depth).
Reactions were scored as if they were covering the entire skin area treated (maximum score).
The Dermal Irritation Index (DII) was calculated as the average of the individual data at each evaluation time.
The dermal irritation indexes obtained were interpreted following ISO/WD 10993-10: […]

[4] = 1% selegiline in the coadjuvant, seven days at 40° C.
[5] = 1% selegiline in the coadjuvant, seven days at 40° C., control pure selegiline

CCN(C)C(=O)Oc1cccc([C@H](C)N(C)C)c1 [Rivastigmine, rivastigmine]
Effect of the drug on cohesiveness of the adhesives (measured by the shear test) [1]: reduces the cohesiveness in all the adhesives

CCOC(=O)CC(O)(CC(=O)OCC)C(=O)OCC [TEC, triethylcitrate]
Amount up to which the coadjuvant is suitable [2]: up to 15% | Effect of coadjuvant on selegiline loss during drying, in words [3]: diminishes the amount of active drug loss during drying in a concentration dependent manner | Impurity rrt: 1.56 [4]: 0.42% | Impurity rrt: 2.09 [4]: 0.98% | Selegiline base (chromatographic purity) [5]: 98.58%

C#CCN(C)[C@H](C)Cc1ccccc1 [pure selegiline, selegiline]
Effect of the drug on cohesiveness of the adhesives (measured by the shear test) [1]: reduces the cohesiveness in all the adhesives | Score for Skin Erythema 1 h (shaved skin; individual rabbits 1-6, 10.6 cm^2 patch, 1 h): 0 | Score for Skin Erythema 2 h (shaved skin; individual rabbits 1-6, 2 h): 0 (5×) and 1 | Score for Skin Erythema 4 h (shaved skin; individual rabbits 1-6, 4 h): 0 (5×) and 1 | Score for Skin Erythema 6 h (shaved skin; individual rabbits 1-6, 6 h): 0 (3×) and 1 (3×) | Score for Skin Erythema 8 h (shaved skin; individual rabbits 1-6, 8 h): 1 | Score for Skin Erythema 24 h (shaved skin; individual rabbits 1-6, 24 h): 1 (5×) and 0 | DII (Dermal Irritation Index) (shaved skin; individual rabbits 1-6, average over evaluation times): 0.3 (4×) and 0.5 and 0.8 | Erythema Score 1 h (shaved skin; mean of 6 rabbits, 1 h): 0.0 | Erythema Score 2 h (shaved skin; mean of 6 rabbits, 2 h): 0.2 | Erythema Score 4 h (shaved skin; mean of 6 rabbits, 4 h): 0.2 | Erythema Score 6 h (shaved skin; mean of 6 rabbits, 6 h): 0.5 | Erythema Score 8 h (shaved skin; mean of 6 rabbits, 8 h): 1.0 | Erythema Score 24 h (shaved skin; mean of 6 rabbits, 24 h): 0.8 | DII (Dermal Irritation Index), Erythema Score line (shaved skin; overall, 6 rabbits, all times): 0.4 | Impurity (any secondary peak): ≦0.05% | Selegiline base (chromatographic purity): 99.98%

CC(C)=CCC/C(C)=C/CC/C(C)=C/CC/C=C(\C)CC/C=C(\C)CCC=C(C)C [squalene]
Amount up to which the coadjuvant is suitable [2]: up to 15% | Effect of coadjuvant on selegiline loss during drying, in words [3]: diminishes the amount of active drug loss during drying in a concentration dependent manner | Impurity rrt: 2.04 [4]: 0.07% | Selegiline base (chromatographic purity) [5]: 99.89%
